Consider five compounds from patent US20240408119A1, “DELIVERY OF THERAPEUTIC ALKALOID COMPOUNDS” (priority 2022, published 2024).

The format of data set [1] is in vitro ADME, mouse. To be noted: 5 μM, 37° C.; for Mouse Plasma Prodrug (%): prodrug remaining; for Mouse Plasma Metabolite (%): metabolite (mesembrine) accumulated. The protocol: (§1) Each test was carried out in duplicate for each time point; 0 min, 15 min, 30 min, 60 min, 120, 240 min. […]
Data set [2] can be described thus: Hydrolysis Assay - Condition 2 (DI Water). It is filed as physicochemical. To be noted: 25° C., 0.5 mM. How it is done: 50 μL of compound (10 mM) in DMSO was diluted into 950 μL of DI water to a final concentration of 0.5 mM. The hydrolysis kinetics were conducted at 25° C. and measured by LCMS at a certain time interval.
(§2) The corresponding LCMS chromatogram were recorded and the conversions were calculated by integration of each peak.
(§3) • 1) LCMS spectra were obtained using Agilent 1200G1956A or SHIMADZU LCMS-2020. Standard LCMS conditions were as follows (running time 1.55 minutes): • Acidic condition: Mobile Phase A: 0.0375% TFA in water (v/v). Mobile Phase B: 0.01875% TFA in acetonitrile (v/v); Column: Kinetex EVO C18 30*2.1 mm, 5 μm. • Basic condition: Mobile Phase A: 0.025% NH3·H2O in water (v/v). Mobile Phase B: Acetonitrile; Column: Kinetex EVO C18 2.1×30 mm, 5 μm. • 2) Conversion (%)=peak area 1/(peak area 1+peak area 2)*100%, peak area 1 is the integration of hydrolyzed product, peak area 2 is the integration of starting material.

The nature of data set [3]: Hydrolysis Assay - Condition 1 (SGF). It is filed as physicochemical. The conditions noted are these: SGF with pepsin pH 1.5, 37° C., 0.5 mM. The protocol:
50 μL of compound (10 mM) in DMSO was diluted into 950 μL of Simulated Gastric Fluid (SGF) with pepsin (pH 1.5) to a final concentration of 0.5 mM. The hydrolysis kinetics were conducted at 37° C. and measured by LCMS at a certain time interval.
as §2, §3

Data set [4] is classed as in vitro ADME, human. To be noted: 5 μM, 37° C.; for Human Plasma Prodrug (%): prodrug remaining; for Human Plasma Metabolite (%): metabolite (mesembrine) accumulated. How it is done: as §1
Data set [5] in a line: Plasma Stability Assay (Example A3), rat plasma. It is filed as in vitro ADME. To be noted: prodrug remaining, 10 μM, 37° C. An excerpt: (§4) The data is represented in the table below.
Data set [6] can be described thus: Plasma Stability Assay (Example A3), human plasma. It is filed as in vitro ADME. To be noted: prodrug remaining, 10 μM, 37° C.
Text: as §4

Like-named read-outs stand apart in the source and are kept apart here. Bounds are passed on as bounds.

Turning to `COc1ccc([C@@]23CCC(OC(=O)N4CCN(C)CC4)=C[C@@H]2N(C)CC3)cc1OC` [Compound 327, [(3aS,7aS)-3a-(3,4-dimethoxyphenyl)-1-methyl-3,4,5,7a-tetrahydro-2H-indol-6-yl]4-methylpiperazine-1-carboxylate], the “Mouse Plasma Prodrug (%)” value was 100% in data set [1] (0 min); above 99% in data set [1] (15 min); above 99% in data set [1] (30 min); above 99% in data set [1] (60 min); above 99% in data set [1] (120 min); above 99% in data set [1] (240 min). For the same compound, the “Condition 2 Conversion (%)” value in data set [2] (1 min), in data set [2] (5 min), in data set [2] (30 min), in data set [2] (1 h), in data set [2] (4 h) and in data set [2] (24 h) was 0% each time. Also, the “Condition 1 Conversion (%)” value in data set [3] (1 min), in data set [3] (5 min), in data set [3] (30 min), in data set [3] (1 h), in data set [3] (4 h) and in data set [3] (24 h) was 0% in each case. The “Human Plasma Prodrug (%)” value in data set [4] (0 min) is 100%; in data set [4] (15 min), above 99%; in data set [4] (30 min), 98.9%; in data set [4] (60 min) it was above 99%; in data set [4] (120 min), above 99%; in data set [4] (240 min), 94.4%.
As for `COc1ccc([C@@]23CCC(OP(=O)(O)OCOC(=O)OC(C)C)=C[C@@H]2N(C)CC3)cc1OC` [Compound 410, [[(3aS,7aS)-3a-(3,4-dimethoxyphenyl)-1-methyl-3,4,5,7a-tetrahydro-2H-indol-6-yl]oxy-hydroxy-phosphoryl]oxymethyl isopropyl carbonate], the “Rat Plasma Prodrug (%)” value worked out at 100.0% in data set [5] (0 min); 63.0% in data set [5] (10 min); 25.4% in data set [5] (30 min); 7.1% in data set [5] (60 min); 0.52% in data set [5] (120 min); 0.01% in data set [5] (240 min). Moreover, the “Human Plasma Prodrug (%)” value was found to be 100.0% in data set [6] (0 min); 96.3% in data set [6] (10 min); 98.8% in data set [6] (30 min); 92.7% in data set [6] (60 min); 88.2% in data set [6] (120 min); 75.5% in data set [6] (240 min).
As for `CCN(C)C(=O)OC1=C[C@@H]2N(C)CC[C@]2(c2ccc(OC)c(OC)c2)CC1` [Compound 326, [(3aS,7aS)-3a-(3,4-dimethoxyphenyl)-1-methyl-3,4,5,7a-tetrahydro-2H-indol-6-yl] N-ethyl-N-methyl-carbamate], the “Mouse Plasma Prodrug (%)” value in data set [1] (0 min) is given as 100.0%; in data set [1] (15 min), above 99%; in data set [1] (30 min) it was 96.6%; in data set [1] (60 min) it was above 99%; in data set [1] (120 min), above 99%; in data set [1] (240 min), 98.5%. The “Condition 2 Conversion (%)” value in data set [2] (1 min), in data set [2] (5 min), in data set [2] (30 min), in data set [2] (1 h), in data set [2] (4 h) and in data set [2] (24 h) was 0% throughout. Besides, the “Condition 1 Conversion (%)” value in data set [3] (1 min), in data set [3] (5 min), in data set [3] (30 min), in data set [3] (1 h), in data set [3] (4 h) and in data set [3] (24 h) was 0% each time. In addition, the “Human Plasma Prodrug (%)” value is listed as 100.0% in data set [4] (0 min); 98.2% in data set [4] (15 min); 99.9% in data set [4] (30 min); 98.4% in data set [4] (60 min); above 99% in data set [4] (120 min); 93.9% in data set [4] (240 min).
In the case of `COc1ccc([C@@]23CCC(OP(=O)(O)O)=C[C@@H]2N(C)CC3)cc1OC` [Compound 359, [(3aS,7aS)-3a-(3,4-dimethoxyphenyl)-1-methyl-3,4,5,7a-tetrahydro-2H-indol-6-yl] dihydrogen phosphate], the “Mouse Plasma Metabolite (%)” value in data set [1] (0 min), in data set [1] (15 min), in data set [1] (30 min), in data set [1] (60 min), in data set [1] (120 min) and in data set [1] (240 min) was 0.0% each time. Besides, the “Mouse Plasma Prodrug (%)” value was 100% in data set [1] (0 min); above 99% in data set [1] (15 min); 82.7% in data set [1] (30 min); 79.0% in data set [1] (60 min); 50.7% in data set [1] (120 min); 59.1% in data set [1] (240 min). Besides, the “Human Plasma Metabolite (%)” value is recorded as 0.0% in data set [4] (0 min); 0.0% in data set [4] (15 min); 0.0% in data set [4] (30 min); 0.0% in data set [4] (60 min); 15.7% in data set [4] (120 min); 23.0% in data set [4] (240 min). Besides, the “Human Plasma Prodrug (%)” value was found to be 100% in data set [4] (0 min); 69.0% in data set [4] (15 min); 65.1% in data set [4] (30 min); 50.4% in data set [4] (60 min); 32.8% in data set [4] (120 min); 25.6% in data set [4] (240 min).
For the compound `COc1ccc([C@@]23CCC(OP(=O)(Oc4ccccc4)Oc4ccccc4)=C[C@@H]2N(C)CC3)cc1OC` [Compound 320, [(3aS,7aS)-3a-(3,4-dimethoxyphenyl)-1-methyl-3,4,5,7a-tetrahydro-2H-indol-6-yl]diphenyl phosphate], the “Mouse Plasma Metabolite (%)” value in data set [1] (0 min) came to 11.8%; in data set [1] (15 min) it was 15.9%; in data set [1] (30 min), 16.9%; in data set [1] (60 min), 18.6%; in data set [1] (120 min) it was 19.1%; in data set [1] (240 min) it was 18.9%. Besides, the “Mouse Plasma Prodrug (%)” value came out at 100% in data set [1] (0 min); 58.5% in data set [1] (15 min); 46.5% in data set [1] (30 min); 30.7% in data set [1] (60 min); 19.4% in data set [1] (120 min); 11.7% in data set [1] (240 min). Moreover, the “Human Plasma Metabolite (%)” value in data set [4] (0 min) came out at 7.6%; in data set [4] (15 min), 8.0%; in data set [4] (30 min), 8.5%; in data set [4] (60 min), 8.6%; in data set [4] (120 min) it was 9.4%; in data set [4] (240 min) it was 10.4%. Further, the “Human Plasma Prodrug (%)” value in data set [4] (0 min) was 100%; in data set [4] (15 min), 95.7%; in data set [4] (30 min), 98.5%; in data set [4] (60 min), 95.7%; in data set [4] (120 min), 98.2%; in data set [4] (240 min) it was 95.3%.
